# Data reported in the supplement of paper PMC10307832.
# Experiments:
# Assay in all cases: relative viability (nuclei count vs DMSO), 5 days (fraction); higher = more cells survive
# [1] = tested on: NCI-H727
# Method in brief: (§1)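 Lung cancer cell lines were seeded in 1536-well plates and dosed by pin tool the next day, with either a single drug or a fixed anchor-drug dose combined with five library-drug doses (not always all listed) spaced in √10 steps. Five days later, one step fixed the cells and stained their nuclei (final 0.05% Triton X-100, 1% formaldehyde, 1 ug/ml Hoechst), and nuclei were counted on 4× images. Relative viability is the nuclei count in treated wells divided by the count in vehicle wells, and each value is the median of duplicate plates.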
# [2] = tested on: LK-2
# Method in brief: as §1
# [3] = tested on: NCI-H1792
# Method in brief: as §1
# [4] = tested on: EMC-BAC-2
# Method in brief: as §1
# [5] = tested on: LXF-289
# Method in brief: as §1
# [6] = tested on: COR-L23
# Method in brief: as §1
# [7] = tested on: NCI-H1793
# Method in brief: as §1
# [8] = tested on: A-427
# Method in brief: as §1
# [9] = tested on: NCI-H2009
# Method in brief: as §1
# [10] = tested on: HARA
# Method in brief: as §1
# [11] = tested on: NCI-H3122
# Method in brief: as §1
# [12] = tested on: NCI-H2170
# Method in brief: as §1
# [13] = tested on: NCI-H596
# Method in brief: as §1
# [14] = tested on: SW 900
# Method in brief: as §1
# [15] = tested on: SK-MES-1
# Method in brief: as §1
# [16] = tested on: PC-3 [JPC-3]
# Method in brief: as §1
# [17] = tested on: ABC-1
# Method in brief: as §1
# [18] = tested on: SW 1573
# Method in brief: as §1
# [19] = tested on: NCI-H1993
# Method in brief: as §1
# [20] = tested on: SK-LU-1
# Method in brief: as §1
# [21] = tested on: NCI-H1944
# Method in brief: as §1
# [22] = tested on: HOP-62
# Method in brief: as §1
smiles,measurement,setting,value
O=C(O)c1ccc(-c2c[nH]c3ncc(-c4ccccc4)cc23)cc1C1CCCC1 + Nc1ncn([C@H]2C[C@H](O)[C@@H](CO)O2)c(=O)n1 [Decitabine] (partner 2 µM),relative viability,[1]; first compound 0.04 µM,0.77
same,relative viability,[1]; first compound 0.1265 µM,0.848
same,relative viability,[1]; first compound 0.4 µM,0.818
same,relative viability,[1]; first compound 1.265 µM,0.788
same,relative viability,[2]; first compound 0.04 µM,0.253
same,relative viability,[2]; first compound 0.1265 µM,0.327
same,relative viability,[2]; first compound 0.4 µM,0.28
same,relative viability,[2]; first compound 1.265 µM,0.333
same,relative viability,[3]; first compound 0.04 µM,0.515
same,relative viability,[3]; first compound 0.1265 µM,0.51
same,relative viability,[3]; first compound 0.4 µM,0.543
same,relative viability,[3]; first compound 1.265 µM,0.457
same,relative viability,[4]; first compound 0.04 µM,0.948
same,relative viability,[4]; first compound 0.1265 µM,1.06
same,relative viability,[4]; first compound 0.4 µM,1.01
same,relative viability,[4]; first compound 1.265 µM,0.909
same,relative viability,[5]; first compound 0.04 µM,0.352
same,relative viability,[5]; first compound 0.1265 µM,0.355
same,relative viability,[5]; first compound 0.4 µM,0.361
same,relative viability,[5]; first compound 1.265 µM,0.302
same,relative viability,[6]; first compound 0.04 µM,0.446
same,relative viability,[6]; first compound 0.1265 µM,0.414
same,relative viability,[6]; first compound 0.4 µM,0.365
same,relative viability,[6]; first compound 1.265 µM,0.327
same,relative viability,[7]; first compound 0.04 µM,0.434
same,relative viability,[7]; first compound 0.1265 µM,0.527
same,relative viability,[7]; first compound 0.4 µM,0.519
same,relative viability,[7]; first compound 1.265 µM,0.334
same,relative viability,[8]; first compound 0.04 µM,0.59
same,relative viability,[8]; first compound 0.1265 µM,0.594
same,relative viability,[8]; first compound 0.4 µM,0.5
same,relative viability,[8]; first compound 1.265 µM,0.475
same,relative viability,[9]; first compound 0.04 µM,0.411
same,relative viability,[9]; first compound 0.1265 µM,0.415
same,relative viability,[9]; first compound 0.4 µM,0.398
same,relative viability,[9]; first compound 1.265 µM,0.347
same,relative viability,[10]; first compound 0.04 µM,0.372
same,relative viability,[10]; first compound 0.1265 µM,0.643
same,relative viability,[10]; first compound 0.4 µM,0.477
same,relative viability,[10]; first compound 1.265 µM,0.354
same,relative viability,[11]; first compound 0.04 µM,0.423
same,relative viability,[11]; first compound 0.1265 µM,0.431
same,relative viability,[11]; first compound 0.4 µM,0.471
same,relative viability,[11]; first compound 1.265 µM,0.428
same,relative viability,[12]; first compound 0.04 µM,0.459
same,relative viability,[12]; first compound 0.1265 µM,0.478
same,relative viability,[12]; first compound 0.4 µM,0.437
same,relative viability,[12]; first compound 1.265 µM,0.437
same,relative viability,[13]; first compound 0.04 µM,1.05
same,relative viability,[13]; first compound 0.1265 µM,0.933
same,relative viability,[13]; first compound 0.4 µM,1.01
same,relative viability,[13]; first compound 1.265 µM,1.74
same,relative viability,[14]; first compound 0.04 µM,0.437
same,relative viability,[14]; first compound 0.1265 µM,0.456
same,relative viability,[14]; first compound 0.4 µM,0.38
same,relative viability,[14]; first compound 1.265 µM,0.344
same,relative viability,[15]; first compound 0.04 µM,0.335
same,relative viability,[15]; first compound 0.1265 µM,0.398
same,relative viability,[15]; first compound 0.4 µM,0.363
same,relative viability,[15]; first compound 1.265 µM,0.328
same,relative viability,[16]; first compound 0.04 µM,0.824
same,relative viability,[16]; first compound 0.1265 µM,0.835
same,relative viability,[16]; first compound 0.4 µM,0.939
same,relative viability,[16]; first compound 1.265 µM,0.74
same,relative viability,[17]; first compound 0.04 µM,1.1
same,relative viability,[17]; first compound 0.1265 µM,1.1
same,relative viability,[17]; first compound 0.4 µM,0.891
same,relative viability,[17]; first compound 1.265 µM,0.931
same,relative viability,[18]; first compound 0.04 µM,0.403
same,relative viability,[18]; first compound 0.1265 µM,0.546
same,relative viability,[18]; first compound 0.4 µM,0.505
same,relative viability,[18]; first compound 1.265 µM,0.407
same,relative viability,[19]; first compound 0.04 µM,0.552
same,relative viability,[19]; first compound 0.1265 µM,0.547
same,relative viability,[19]; first compound 0.4 µM,0.613
same,relative viability,[19]; first compound 1.265 µM,0.644
same,relative viability,[20]; first compound 0.04 µM,0.633
same,relative viability,[20]; first compound 0.1265 µM,0.587
same,relative viability,[20]; first compound 0.4 µM,0.592
same,relative viability,[20]; first compound 1.265 µM,0.508
same,relative viability,[21]; first compound 0.04 µM,0.448
same,relative viability,[21]; first compound 0.1265 µM,0.437
same,relative viability,[21]; first compound 0.4 µM,0.423
same,relative viability,[21]; first compound 1.265 µM,0.402
same,relative viability,[22]; first compound 0.04 µM,0.166
same,relative viability,[22]; first compound 0.1265 µM,0.241
same,relative viability,[22]; first compound 0.4 µM,0.203
same,relative viability,[22]; first compound 1.265 µM,0.239
